Laboratory results as given in US20080262080A1, “Allergy Suppressive Agent” (KYUSHU UNIVERSITY, NATIONAL UNIVERSITY CORPORATION, priority 2004, published 2008).

Key:
[1] = system: FcεRI α- and γ-chains mRNA; assay: mRNA transcription level of FcεRI α- and γ-chains in KU812 cells (RT-PCR, Southern hybridization); format: cell-based, human; details: serum-free, G3PDH control
Method: The mRNA expression of each of the FcεRI α- and γ-chains was detected by RT-PCR and southern hybridization using specific probes. G3PDH (glyceraldehyde-3-phosphate dehydrogenase) was employed as a control.
KU812 cells (1×10^6 cells/mL) were incubated under serum-free conditions in RPMI 1640 medium to which chrysin had been added. After incubating, the cells were washed with PBS once and then completely lysed by adding 1 mL of Trizol (Invitrogen) per 1×10^7 cells and quickly suspending. After allowing to stand at room temperature for 5 min, 0.2 mL of chloroform was added and the mixture was vigorously stirred and overturned. […] The concentration of the total RNA diluted 50-fold with water was measured using a wavelength of 260 nm. […]
The PCR mixture was prepared by mixing 1 μL of the cDNA, 0.8 μL of 2 mM dNTP, 0.6 μL of MgCl2, 0.5 μL of […] sense primer, 0.5 μL of 20 μM antisense primer, 0.1 μL of Taq DNA polymerase (Fermentas) and 1 μL of 10× Taq buffer accompanying Taq DNA polymerase and adjusting the total volume to 10 μL with distilled water. […] Next, amplification was conducted in 13 to 15 cycles (each cycle consisting of 1 min at 95° C., 1 min at 60° C. and 1 min at 72° C. The PCR product was electrophoresed on a 1% agarose gel and the amplified DNA was detected by Southern blotting. […]

[2] = system: blood antibody level (IgM, IgG, IgA, IgE); assay: Blood antibody level of mice antigen-sensitized with ovalbumin (OVA) after chrysin intake (ELISA); format: in vivo, mouse
Method: Male BALB/c mice aged 8 weeks were divided into an AIN-93M-fed group (a control group) and a chrysin-comprising AIN-93M-fed group. After feeding with the individual feeds for 3 weeks, both groups were fed with the AIN-93M feed for 2 weeks. Each feed was given at a ratio of 5 g/day/animal while the animals were allowed to take water ad libitum. OVA-sensitization was conducted by injecting 100 μg of OVA/aluminum hydroxide gel into the peritoneal cavity of each mouse 1 and 2 weeks after the initiation of the feed, i.e., twice in total. On day 35, blood samples were collected and the total IgM, IgG and IgE levels in the serum were measured by ELISA. Reagents employed in ELISA for quantifying the antibody were as follows. In blocking, use was made of PBS comprising 1% of bovine serum albumin (Roche) (BSA-PBS). As solid phase antibodies, use was made of F(ab′)2 goat anti-mouse IgG antibody (Zymed Laboratories, Inc.), F(ab′)2 rabbit anti-mouse IgM antibody (Zymed Laboratories, Inc.) and rabbit anti-mouse IgA (Zymed Laboratories, Inc.). As secondary antibodies, use was made of HRP-labeled F(ab′)2 goat anti-mouse IgG(H(L) antibody (Zymed Laboratories, Inc.), HRP-labeled rabbit anti-mouse IgM antibody (Zymed Laboratories, Inc.) and HRP-labeled goat anti-mouse IgA antibody (Zymed Laboratories, Inc.). 2,2′-Anizo-bis(3-ethylbenzothiazoline-6-sulfonic acid) diammonium salt (ABTS) employed as a color development substrate was purchased from Wako Pure Chemical Industries, while oxalic acid was purchased from Nacalai tesque (Kyoto, Japan). A solid phase antibody solution (diluted 1000-fold with a 50 mM carbonate buffer) was pipetted into an immunoplate at a ratio of 100 μL/well and allowed to stand overnight at 4° C. After washing thrice with PBS comprising 0.1% of polyoxyethylene sorbitan monolaurate (Nacalai tesque) (TPBS), 300 μL/well of BSA-PBS was pipetted and incubation was conducted for 2 hours at 37° C. After washing thrice with TPBS, a sample and a standard solution, which were optionally diluted with BSA-PBS, were added at a ratio of 50 μL/well and allowed to stand overnight at 4° C. After washing thrice with TPBS, 100 μL/well of a secondary antibody solution (diluted 2000-fold with BSA-PBS) was pipetted and incubation was conducted for 1 hour at 37° C. After washing thrice with TPBS, 100 μL/well of a color development substrate solution was pipetted and color development was carried out. Then, 100 μL/well of oxalic acid was pipetted to cease the reaction and the absorbance was measured at 415 to 490 nm. As the color development substrate solution, a mixture of a 0.006% H2O2— comprising 0.2 M citrate buffer (pH 4.0), deionized water and a 10.94 mM ABTS solution (10:9:1) was employed. In the case of IgE, the procedure indicated in the protocol attached to a mouse IgE assay kit (Morinaga Biochemistry Lab.) was followed. Absorbance was measured using Immuno Mini NJ-2300 (Nippon Intermed).

[3] = serum, day 35, BALB/c mice OVA-sensitized, chrysin-comprising feed 3 weeks

O=c1cc(-c2ccccc2)oc2cc(O)cc(O)c12 [Chrysin, 5,7-dihydroxyflavone]
expression of FcεRI at the mRNA level [1]: suppressed
blood IgE level compared with the control group ([2]; OVA-sensitized mice, in words): significantly lowered
effect of chrysin intake on blood IgM, IgG and IgA levels ([2]; OVA-sensitized mice, in words, vs control group): no effect
IgA [2, 3]: 0.6 ± 0.0 mg/mL
IgG [2, 3]: 23.5 ± 3.0 mg/mL
IgM [2, 3]: 5.4 ± 0.2 mg/mL
